According to patent publication US8410112B2, “Compounds useful as inhibitors of ATR kinase” (Vertex Pharmaceuticals Incorporated, priority 2008, dated 2013):

biological target: T1, full-length ATR (Homo sapiens, UniProt Q13535); assay: ATR Inhibition Assay (radioactive-phosphate incorporation); format: biochemical; conditions: Ki(app); 5 nM full-length ATR, 10 μM ATP, 800 μM target peptide, 25° C.
T1 construct: in the presence of 5 nM full-length ATR
Procedure, shortened: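 After a 10-min pre-incubation of compound with 5 nM enzyme at 25 °C, ATP was added to start the reaction (final 10 μM [γ-33P]ATP, 800 μM peptide; Tris/HCl pH 7.5, MgCl2, DTT), which ran 24 h. Incorporated 33P was captured on phosphocellulose filters, and Ki(app) was fitted by non-linear regression.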

T1 sequence (Q13535 whole entry): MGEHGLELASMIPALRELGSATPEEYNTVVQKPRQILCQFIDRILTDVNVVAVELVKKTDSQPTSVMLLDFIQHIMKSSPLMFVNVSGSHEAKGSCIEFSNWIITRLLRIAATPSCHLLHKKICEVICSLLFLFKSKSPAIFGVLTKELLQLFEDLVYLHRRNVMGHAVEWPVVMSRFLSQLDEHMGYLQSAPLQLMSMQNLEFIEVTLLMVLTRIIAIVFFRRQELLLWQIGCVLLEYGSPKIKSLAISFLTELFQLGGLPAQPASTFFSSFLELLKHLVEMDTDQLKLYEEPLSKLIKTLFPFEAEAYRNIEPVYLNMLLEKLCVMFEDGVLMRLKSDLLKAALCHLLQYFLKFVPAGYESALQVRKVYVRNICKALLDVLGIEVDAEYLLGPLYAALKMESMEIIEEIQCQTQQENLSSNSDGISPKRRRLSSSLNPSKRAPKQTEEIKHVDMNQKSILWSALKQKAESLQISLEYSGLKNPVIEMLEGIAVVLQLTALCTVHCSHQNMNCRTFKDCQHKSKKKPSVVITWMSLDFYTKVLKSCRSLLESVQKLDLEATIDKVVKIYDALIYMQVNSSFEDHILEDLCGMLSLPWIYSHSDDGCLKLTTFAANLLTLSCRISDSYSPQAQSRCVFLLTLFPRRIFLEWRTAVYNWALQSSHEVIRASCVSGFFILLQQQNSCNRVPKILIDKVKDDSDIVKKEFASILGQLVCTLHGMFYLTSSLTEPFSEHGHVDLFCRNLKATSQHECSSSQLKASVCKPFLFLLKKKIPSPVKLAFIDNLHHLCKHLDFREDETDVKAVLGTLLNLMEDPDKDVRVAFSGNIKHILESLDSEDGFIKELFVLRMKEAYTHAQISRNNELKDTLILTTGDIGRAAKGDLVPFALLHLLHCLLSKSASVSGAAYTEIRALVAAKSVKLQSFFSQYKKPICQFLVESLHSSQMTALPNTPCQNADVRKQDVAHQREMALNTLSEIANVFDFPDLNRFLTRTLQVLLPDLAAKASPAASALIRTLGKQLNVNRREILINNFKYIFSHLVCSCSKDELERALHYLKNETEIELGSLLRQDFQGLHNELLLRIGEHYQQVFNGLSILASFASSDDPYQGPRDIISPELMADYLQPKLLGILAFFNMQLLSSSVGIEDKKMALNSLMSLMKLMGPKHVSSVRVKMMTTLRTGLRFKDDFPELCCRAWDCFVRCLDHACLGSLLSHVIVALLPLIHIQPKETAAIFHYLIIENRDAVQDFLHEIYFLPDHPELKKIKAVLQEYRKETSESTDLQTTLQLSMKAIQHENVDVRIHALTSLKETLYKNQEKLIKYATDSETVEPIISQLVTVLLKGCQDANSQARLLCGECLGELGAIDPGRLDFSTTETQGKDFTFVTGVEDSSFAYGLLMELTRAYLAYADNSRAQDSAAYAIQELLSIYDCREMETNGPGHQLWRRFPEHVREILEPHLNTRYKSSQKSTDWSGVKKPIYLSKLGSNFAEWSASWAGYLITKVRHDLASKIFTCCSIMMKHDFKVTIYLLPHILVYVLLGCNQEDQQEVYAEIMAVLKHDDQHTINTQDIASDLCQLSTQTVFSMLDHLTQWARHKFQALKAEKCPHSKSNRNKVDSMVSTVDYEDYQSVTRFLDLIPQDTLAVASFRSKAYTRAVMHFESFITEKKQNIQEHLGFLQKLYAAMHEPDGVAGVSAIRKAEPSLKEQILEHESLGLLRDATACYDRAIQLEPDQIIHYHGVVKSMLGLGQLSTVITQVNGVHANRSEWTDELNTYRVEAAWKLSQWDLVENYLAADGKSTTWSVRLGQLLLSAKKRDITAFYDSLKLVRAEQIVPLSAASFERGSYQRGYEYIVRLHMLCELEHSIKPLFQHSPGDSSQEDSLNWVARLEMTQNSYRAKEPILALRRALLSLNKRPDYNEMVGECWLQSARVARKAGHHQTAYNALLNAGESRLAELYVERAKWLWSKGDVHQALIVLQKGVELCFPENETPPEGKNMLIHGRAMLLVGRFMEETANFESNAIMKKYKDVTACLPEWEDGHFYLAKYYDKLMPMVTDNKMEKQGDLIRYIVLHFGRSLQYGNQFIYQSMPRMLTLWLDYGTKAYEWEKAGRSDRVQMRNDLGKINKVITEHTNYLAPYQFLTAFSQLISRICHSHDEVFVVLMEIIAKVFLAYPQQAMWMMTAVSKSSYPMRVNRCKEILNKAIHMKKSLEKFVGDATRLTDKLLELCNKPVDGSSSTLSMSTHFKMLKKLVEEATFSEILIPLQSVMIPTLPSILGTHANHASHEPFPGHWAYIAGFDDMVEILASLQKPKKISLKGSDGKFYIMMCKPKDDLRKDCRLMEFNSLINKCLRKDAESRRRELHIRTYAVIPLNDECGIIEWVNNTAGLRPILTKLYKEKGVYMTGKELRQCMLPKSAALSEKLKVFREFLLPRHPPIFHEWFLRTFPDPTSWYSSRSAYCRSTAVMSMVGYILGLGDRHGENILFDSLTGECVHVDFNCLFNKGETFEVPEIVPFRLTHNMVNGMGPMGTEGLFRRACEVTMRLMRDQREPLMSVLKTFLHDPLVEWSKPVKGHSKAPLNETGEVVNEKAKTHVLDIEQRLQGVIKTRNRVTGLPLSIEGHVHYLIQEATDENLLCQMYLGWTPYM

| Compound | Ki [nM] |
| --- | --- |
| Nc1ncc(N2CCNCC2)nc1C(=O)Nc1ccccn1 [Compound I-42, 3-amino-6-(piperazin-1-yl)-N-(pyridin-2-yl)pyrazine-2-carboxamide] | 1000 to 10000 |
| CN(C)CC(=O)N[C@H]1CCN(c2cnc(N)c(-c3nc4ccccc4[nH]3)n2)C1 [Compound I-184, (S)-N-(1-(5-amino-6-(1H-benzo[d]imidazol-2-yl)pyrazin-2-yl)pyrrolidin-3-yl)-2-(dimethylamino)ethanamide] | 1000 to 10000 |
| COCC(=O)N1CCN(c2cnc(N)c(C(=O)Nc3ccccn3)n2)CC1 [Compound I-147, 3-amino-6-(4-(2-methoxyethanoyl)piperazin-1-yl)-N-(pyridin-2-yl)pyrazine-2-carboxamide] | 1000 to 10000 |
| CC(C)C(=O)N1CCN(c2cnc(N)c(-c3nc4ccccc4[nH]3)n2)CC1 [Compound I-199, 1-(4-(5-amino-6-(1H-benzo[d]imidazol-2-yl)pyrazin-2-yl)piperazin-1-yl)-2-methylpropan-1-one] | 1000 to 10000 |
| CCOC(=O)N1CCN(c2cnc(N)c(-c3nc4ccccc4[nH]3)n2)CC1 [Compound I-271, ethyl 4-(5-amino-6-(1H-benzo[d]imidazol-2-yl)pyrazin-2-yl)piperazine-1-carboxylate] | 1000 to 10000 |
| CC(=O)NC1CN(c2cnc(N)c(-c3nnc(-c4ccccc4)o3)n2)C1 [Compound I-282, N-(1-(5-amino-6-(5-phenyl-1,3,4-oxadiazol-2-yl)pyrazin-2-yl)azetidin-3-yl)ethanamide] | 1000 to 10000 |
| CCS(=O)(=O)N1CC=C(c2cnc(N)c(-c3nc4ccc(C)c(C)c4[nH]3)n2)CC1 [Compound I-152, 3-(6,7-dimethyl-1H-benzo[d]imidazol-2-yl)-5-(1-(ethylsulfonyl)-1,2,3,6-tetrahydropyridin-4-yl)pyrazin-2-amine] | 100 to 1000 |
| CCNC(=O)[C@H]1CCCN1c1cnc(N)c(-c2nnc(-c3ccc(CNC)cc3)o2)n1 [Compound I-357, (2R)-1-[5-Amino-6-[5-[4-(methylaminomethyl)phenyl]-1,3,4-oxadiazol-2-yl]pyrazin-2-yl]-N-ethyl-pyrrolidine-2-carboxamide] | 100 to 1000 |
| CN(C)C1CCN(C(=O)N2CC=C(c3cnc(N)c(-c4nc5ccccc5[nH]4)n3)CC2)CC1 [Compound I-173, (4-(5-amino-6-(1H-benzo[d]imidazol-2-yl)pyrazin-2-yl)-5,6-dihydropyridin-1(2H)-yl)(4-(dimethylamino)piperidin-1-yl)methanone] | 100 to 1000 |
| CCOC(=O)N1CCN(c2cnc(N)c(C(=O)Nc3ccccn3)n2)CC1 [Compound I-113, ethyl 4-(5-amino-6-(pyridin-2-ylcarbamoyl)pyrazin-2-yl)piperazine-1-carboxylate] | 1000 to 10000 |
| NCCC(=O)N1CC=C(c2cnc(N)c(-c3nc4ccccc4[nH]3)n2)CC1 [Compound I-338, 3-amino-1-(4-(5-amino-6-(1H-benzo[d]imidazol-2-yl)pyrazin-2-yl)-5,6-dihydropyridin-1(2H)-yl)propan-1-one] | 100 to 1000 |
| Nc1ncc(N2CC[C@H](NC(=O)c3ccccc3)C2)nc1-c1nc2ccccc2[nH]1 [Compound I-108, (S)-N-(1-(5-amino-6-(1H-benzo[d]imidazol-2-yl)pyrazin-2-yl)pyrrolidin-3-yl)benzamide] | 100 to 1000 |
| CC(C)(C)C(=O)N1CC=C(c2cnc(N)c(-c3nc4ccccc4[nH]3)n2)CC1 [Compound I-214, 1-(4-(5-amino-6-(1H-benzo[d]imidazol-2-yl)pyrazin-2-yl)-5,6-dihydropyridin-1(2H)-yl)-2,2-dimethylpropan-1-one] | 100 to 1000 |
| Cc1cccc(C)c1C(=O)N1CCN(c2cnc(N)c(C(=O)Nc3ccccn3)n2)CC1 [Compound I-262, 3-amino-6-(4-(2,6-dimethylphenylcarbonyl)piperazin-1-yl)-N-(pyridin-2-yl)pyrazine-2-carboxamide] | 100 to 1000 |
| Cc1ccc2nc(-c3nc(N4CCOCC4)cnc3N)[nH]c2c1 [Compound I-3, 3-(6-methyl-1H-benzo[d]imidazol-2-yl)-5-morpholinopyrazin-2-amine] | 100 to 1000 |
| CCS(=O)(=O)N1CCN(c2cnc(N)c(-c3cc4ccccc4s3)n2)CC1 [Compound I-59, 3-(benzo[b]thiophen-2-yl)-5-(4-(ethylsulfonyl)piperazin-1-yl)pyrazin-2-amine] | 100 to 1000 |
| CCC(=O)N1CCC(c2cnc(N)c(-c3nnc(-c4ccc(CNC)cc4)o3)n2)CC1 [Compound I-353, 1-(4-(5-Amino-6-(5-(4-((methylamino)methyl)phenyl)-1,3,4-oxadiazol-2-yl)pyrazin-2-yl)piperidin-1-yl)propan-1-one] | 100 to 1000 |
| Nc1ncc(N2CC=C(c3nccs3)CC2)nc1-c1nnc(-c2ccccc2)o1 [Compound I-290, 3-(5-phenyl-1,3,4-oxadiazol-2-yl)-5-(4-thiazol-2-yl-3,6-dihydro-2H-pyridin-1-yl)pyrazin-2-amine] | 100 to 1000 |
| Nc1ncc(N2CCN(C(=O)c3c(F)cccc3F)CC2)nc1-c1nc2ccccc2[nH]1 [Compound I-177, (4-(5-amino-6-(1H-benzo[d]imidazol-2-yl)pyrazin-2-yl)piperazin-1-yl)(2,6-difluorophenyl)methanone] | 100 to 1000 |
| Nc1ncc(N2CCN(C(=O)N3CCCCC3)CC2)nc1-c1nnc(-c2ccccc2)o1 [Compound I-231, (4-(5-amino-6-(5-phenyl-1,3,4-oxadiazol-2-yl)pyrazin-2-yl)piperazin-1-yl)(piperidin-1-yl)methanone] | 100 to 1000 |
| Cc1ccc2nc(-c3nc(N4CCN(c5ncccn5)CC4)cnc3N)[nH]c2c1 [Compound I-35, 3-(6-methyl-1H-benzo[d]imidazol-2-yl)-5-(4-(pyrimidin-2-yl)piperazin-1-yl)pyrazin-2-amine] | 1000 to 10000 |

Results, then the compound that gave them:

| Ki [nM] | Compound |
| --- | --- |
| 100 to 1000 | CCS(=O)(=O)N1CCN(c2cnc(N)c(-c3nc4cccnc4[nH]3)n2)CC1 [Compound I-56, 5-(4-(ethylsulfonyl)piperazin-1-yl)-3-(3H-imidazo[4,5-b]pyridin-2-yl)pyrazin-2-amine] |
| 100 to 1000 | CC(C)(C)C(=O)N1CCN(c2cnc(N)c(-c3nnc(-c4ccccc4)o3)n2)CC1 [Compound I-198, 1-(4-(5-amino-6-(5-phenyl-1,3,4-oxadiazol-2-yl)pyrazin-2-yl)piperazin-1-yl)-2,2-dimethylpropan-1-one] |
| 100 to 1000 | COCCOCC(=O)N1CC=C(c2cnc(N)c(-c3nc4ccccc4[nH]3)n2)CC1 [Compound I-140, 1-(4-(5-amino-6-(1H-benzo[d]imidazol-2-yl)pyrazin-2-yl)-5,6-dihydropyridin-1(2H)-yl)-2-(2-methoxyethoxy)ethanone] |
| 100 to 1000 | CCS(=O)(=O)N1CCN(c2cnc(N)c(-c3cc(-c4ccccc4)no3)n2)CC1 [Compound I-162, 5-(4-(ethylsulfonyl)piperazin-1-yl)-3-(3-phenylisoxazol-5-yl)pyrazin-2-amine] |
| 100 to 1000 | CN(C)C(=O)N1CCN(c2cnc(N)c(-c3nnc(-c4ccccc4)o3)n2)CC1 [Compound I-218, 4-(5-amino-6-(5-phenyl-1,3,4-oxadiazol-2-yl)pyrazin-2-yl)-N,N-dimethylpiperazine-1-carboxamide] |
| 100 to 1000 | CCOC(=O)N1CCN(c2cnc(N)c(-c3nnc(-c4ccccc4)o3)n2)CC1 [Compound I-232, ethyl 4-(5-amino-6-(5-phenyl-1,3,4-oxadiazol-2-yl)pyrazin-2-yl)piperazine-1-carboxylate] |
| < 100 | CCC(=O)N1CCN(c2cnc(N)c(-c3nnc(-c4ccc(CNC)cc4)o3)n2)CC1 [Compound I-327, 1-[4-[5-Amino-6-[5-[4-(methylaminomethyl)phenyl]-1,3,4-oxadiazol-2-yl]pyrazin-2-yl]piperazin-1-yl]propan-1-one] |
| < 100 | Nc1ncc(C2=CCN(S(=O)(=O)c3ccccc3)CC2)nc1-c1nc2ccccc2[nH]1 [Compound I-210, 3-(1H-benzo[d]imidazol-2-yl)-5-(1-(phenylsulfonyl)-1,2,3,6-tetrahydropyridin-4-yl)pyrazin-2-amine] |
| 100 to 1000 | Nc1ncc(N2CCN(C(=O)C3CCCC3)CC2)nc1-c1nnc(-c2ccccc2)o1 [Compound I-194, (4-(5-amino-6-(5-phenyl-1,3,4-oxadiazol-2-yl)pyrazin-2-yl)piperazin-1-yl)(cyclopentyl)methanone] |
| 100 to 1000 | CNCc1ccc(-c2nnc(-c3nc(N4CCC[C@H]4CO)cnc3N)o2)cc1 [Compound I-352, [(2S)-1-[5-Amino-6-[5-[4-(methylaminomethyl)phenyl]-1,3,4-oxadiazol-2-yl]pyrazin-2-yl]pyrrolidin-2-yl]methanol] |
| 100 to 1000 | Nc1ncc(N2CCN(C(=O)N3CCCC3)CC2)nc1-c1nnc(-c2ccccc2)o1 [Compound I-223, (4-(5-amino-6-(5-phenyl-1,3,4-oxadiazol-2-yl)pyrazin-2-yl)piperazin-1-yl)(pyrrolidin-1-yl)methanone] |
| 100 to 1000 | Nc1ncc(N2CC=C(C(=O)O)CC2)nc1-c1nnc(-c2ccccc2)o1 [Compound I-288, 1-[5-amino-6-(5-phenyl-1,3,4-oxadiazol-2-yl)pyrazin-2-yl]-3,6-dihydro-2H-pyridine-4-carboxylic acid] |
| < 100 | CN(C)S(=O)(=O)N1CC=C(c2cnc(N)c(-c3nc4ccccc4[nH]3)n2)CC1 [Compound I-89, 4-(5-amino-6-(1H-benzo[d]imidazol-2-yl)pyrazin-2-yl)-N,N-dimethyl-5,6-dihydropyridine-1(2H)-sulfonamide] |
| < 100 | CCC(=O)N1CC=C(c2cnc(N)c(-c3nc4ccccc4[nH]3)n2)CC1 [Compound I-309, 1-[4-[5-amino-6-(1H-benzimidazol-2-yl)pyrazin-2-yl]-3,6-dihydro-2H-pyridin-1-yl]propan-1-one] |
| < 100 | CCC(=O)N1CCN(c2cnc(N)c(-c3nnc(-c4ccc(CNC)cc4)o3)n2)C[C@@H]1C(C)C [Compound I-326, 1-[(2S)-4-[5-Amino-6-[5-[4-(methylaminomethyl)phenyl]-1,3,4-oxadiazol-2-yl]pyrazin-2-yl]-2-isopropyl-piperazin-1-yl]propan-1-one] |
